Results from ChEMBL document CHEMBL1938230, “6-Position optimization of tricyclic 4-quinolone-based inhibitors of glycogen synthase kinase-3β: discovery of nitrile derivatives with picomolar potency” (Bioorg Med Chem Lett, 2012).

Tests used:
HL-60 [1] = test: Inhibition of human P38delta/P38gamma in HL-60 cells lysate assessed as reduction of labeling of acyl-phosphate ATP probe at 100 nM
[2] = biological target: Cyclin-dependent kinase 2 (Homo sapiens) (UniProt P24941); test: Inhibition of human CDK2 in HL-60 cells lysate assessed as reduction of labeling of acyl-phosphate ATP probe at 100 nM; assay type: cell-free
[3] = biological target: Mitogen-activated protein kinase kinase kinase kinase 5 (Homo sapiens) (UniProt Q9Y4K4); test: Inhibition of human KHS1 in HL-60 cells lysate assessed as reduction of labeling of acyl-phosphate ATP probe at 100 nM; assay type: cell-free
[4] = biological target: T1, Serine/threonine-protein kinase TBK1 (Homo sapiens) (UniProt Q9UHD2); test: Inhibition of human TBK1 in HL-60 cells lysate assessed as reduction of labeling of acyl-phosphate ATP probe at 100 nM; assay type: cell-free
T1 sequence (whole entry): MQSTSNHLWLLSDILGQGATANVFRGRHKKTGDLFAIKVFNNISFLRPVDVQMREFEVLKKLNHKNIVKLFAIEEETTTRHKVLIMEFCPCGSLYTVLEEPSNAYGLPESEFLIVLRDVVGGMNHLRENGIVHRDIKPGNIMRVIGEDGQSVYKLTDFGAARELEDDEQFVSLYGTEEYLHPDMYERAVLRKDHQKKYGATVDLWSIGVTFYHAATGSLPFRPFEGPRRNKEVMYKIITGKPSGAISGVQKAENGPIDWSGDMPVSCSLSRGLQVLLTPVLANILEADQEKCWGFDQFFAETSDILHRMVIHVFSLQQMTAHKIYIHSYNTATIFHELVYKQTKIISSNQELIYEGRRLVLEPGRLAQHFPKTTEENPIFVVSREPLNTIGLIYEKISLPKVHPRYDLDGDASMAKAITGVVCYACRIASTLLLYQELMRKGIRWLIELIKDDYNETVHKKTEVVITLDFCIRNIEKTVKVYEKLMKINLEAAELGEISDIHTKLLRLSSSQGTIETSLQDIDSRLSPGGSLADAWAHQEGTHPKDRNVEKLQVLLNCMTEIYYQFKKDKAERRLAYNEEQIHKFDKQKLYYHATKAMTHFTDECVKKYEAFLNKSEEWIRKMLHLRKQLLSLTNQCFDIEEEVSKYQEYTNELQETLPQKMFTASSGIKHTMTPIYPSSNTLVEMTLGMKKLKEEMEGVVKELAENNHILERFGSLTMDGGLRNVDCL

[5] = biological target: DNA-dependent protein kinase catalytic subunit (Homo sapiens) (UniProt P78527); test: Inhibition of human DNAPK in HL-60 cells lysate assessed as reduction of labeling of acyl-phosphate ATP probe at 100 nM; assay type: cell-free
[6] = biological target: Serine/threonine-protein kinase ATR (Homo sapiens) (UniProt Q13535); test: Inhibition of human ATR in HL-60 cells lysate assessed as reduction of labeling of acyl-phosphate ATP probe at 100 nM; assay type: cell-free
[7] = biological target: T2, Aurora kinase A (Homo sapiens) (UniProt O14965); test: Inhibition of human AurA in HL-60 cells lysate assessed as reduction of labeling of acyl-phosphate ATP probe at 100 nM; assay type: cell-free
T2 sequence (whole entry): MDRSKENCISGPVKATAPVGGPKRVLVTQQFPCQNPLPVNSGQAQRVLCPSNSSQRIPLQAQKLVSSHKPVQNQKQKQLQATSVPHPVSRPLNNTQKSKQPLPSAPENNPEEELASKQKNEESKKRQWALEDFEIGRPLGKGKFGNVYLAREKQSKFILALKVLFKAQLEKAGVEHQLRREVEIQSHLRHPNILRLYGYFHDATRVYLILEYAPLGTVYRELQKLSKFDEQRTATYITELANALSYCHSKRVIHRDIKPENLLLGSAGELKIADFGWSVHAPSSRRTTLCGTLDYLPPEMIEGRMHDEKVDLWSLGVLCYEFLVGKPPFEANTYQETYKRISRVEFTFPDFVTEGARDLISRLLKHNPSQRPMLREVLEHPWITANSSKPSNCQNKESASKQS

[8] = biological target: T3, Phosphatidylinositol 5-phosphate 4-kinase type-2 beta (Homo sapiens) (UniProt P78356); test: Inhibition of human PIP4K2B in HL-60 cells lysate assessed as reduction of labeling of acyl-phosphate ATP probe at 100 nM; assay type: cell-free
T3 sequence (whole entry): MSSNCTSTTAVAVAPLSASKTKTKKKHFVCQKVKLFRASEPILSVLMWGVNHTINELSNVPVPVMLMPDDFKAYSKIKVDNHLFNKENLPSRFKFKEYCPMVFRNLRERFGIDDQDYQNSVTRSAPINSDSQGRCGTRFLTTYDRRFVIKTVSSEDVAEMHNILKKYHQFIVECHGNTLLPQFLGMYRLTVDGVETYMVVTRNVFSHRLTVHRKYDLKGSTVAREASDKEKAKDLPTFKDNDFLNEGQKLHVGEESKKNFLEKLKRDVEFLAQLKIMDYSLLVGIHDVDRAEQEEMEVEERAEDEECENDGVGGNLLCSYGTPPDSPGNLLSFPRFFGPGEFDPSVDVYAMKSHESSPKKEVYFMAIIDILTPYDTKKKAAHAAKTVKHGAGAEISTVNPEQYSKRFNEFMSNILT

[9] = biological target: T4, Inhibitor of nuclear factor kappa-B kinase subunit alpha (Homo sapiens) (UniProt O15111); test: Inhibition of human IKKalpha in HL-60 cells lysate assessed as reduction of labeling of acyl-phosphate ATP probe at 100 nM; assay type: cell-free
T4 sequence (whole entry): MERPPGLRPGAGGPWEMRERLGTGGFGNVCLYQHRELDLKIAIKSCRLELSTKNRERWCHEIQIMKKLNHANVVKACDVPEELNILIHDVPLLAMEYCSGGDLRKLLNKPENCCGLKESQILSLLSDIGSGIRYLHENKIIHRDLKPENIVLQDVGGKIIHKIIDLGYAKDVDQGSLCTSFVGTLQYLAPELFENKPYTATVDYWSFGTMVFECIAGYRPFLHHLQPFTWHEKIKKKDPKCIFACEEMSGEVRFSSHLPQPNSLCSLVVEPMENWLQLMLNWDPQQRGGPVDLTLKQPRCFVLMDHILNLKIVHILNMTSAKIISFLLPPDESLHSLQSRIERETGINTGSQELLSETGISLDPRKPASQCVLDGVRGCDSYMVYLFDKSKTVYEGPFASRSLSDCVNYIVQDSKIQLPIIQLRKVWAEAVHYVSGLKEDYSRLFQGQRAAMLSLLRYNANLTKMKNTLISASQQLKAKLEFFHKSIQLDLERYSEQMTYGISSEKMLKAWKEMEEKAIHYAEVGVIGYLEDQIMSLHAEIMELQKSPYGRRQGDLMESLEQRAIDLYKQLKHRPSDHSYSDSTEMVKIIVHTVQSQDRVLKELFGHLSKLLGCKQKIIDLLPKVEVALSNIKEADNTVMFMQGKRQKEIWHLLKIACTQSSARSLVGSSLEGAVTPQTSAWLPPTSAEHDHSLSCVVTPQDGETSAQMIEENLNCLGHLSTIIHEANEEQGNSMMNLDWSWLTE

HL-60 [10] = test: Inhibition of human MAP3K5/MAP3K6/MAP3K7 in HL-60 cells lysate assessed as reduction of labeling of acyl-phosphate ATP probe at 100 nM

Serine/threonine-protein kinase ATR (Homo sapiens), sequence (Q13535 whole entry, looked up): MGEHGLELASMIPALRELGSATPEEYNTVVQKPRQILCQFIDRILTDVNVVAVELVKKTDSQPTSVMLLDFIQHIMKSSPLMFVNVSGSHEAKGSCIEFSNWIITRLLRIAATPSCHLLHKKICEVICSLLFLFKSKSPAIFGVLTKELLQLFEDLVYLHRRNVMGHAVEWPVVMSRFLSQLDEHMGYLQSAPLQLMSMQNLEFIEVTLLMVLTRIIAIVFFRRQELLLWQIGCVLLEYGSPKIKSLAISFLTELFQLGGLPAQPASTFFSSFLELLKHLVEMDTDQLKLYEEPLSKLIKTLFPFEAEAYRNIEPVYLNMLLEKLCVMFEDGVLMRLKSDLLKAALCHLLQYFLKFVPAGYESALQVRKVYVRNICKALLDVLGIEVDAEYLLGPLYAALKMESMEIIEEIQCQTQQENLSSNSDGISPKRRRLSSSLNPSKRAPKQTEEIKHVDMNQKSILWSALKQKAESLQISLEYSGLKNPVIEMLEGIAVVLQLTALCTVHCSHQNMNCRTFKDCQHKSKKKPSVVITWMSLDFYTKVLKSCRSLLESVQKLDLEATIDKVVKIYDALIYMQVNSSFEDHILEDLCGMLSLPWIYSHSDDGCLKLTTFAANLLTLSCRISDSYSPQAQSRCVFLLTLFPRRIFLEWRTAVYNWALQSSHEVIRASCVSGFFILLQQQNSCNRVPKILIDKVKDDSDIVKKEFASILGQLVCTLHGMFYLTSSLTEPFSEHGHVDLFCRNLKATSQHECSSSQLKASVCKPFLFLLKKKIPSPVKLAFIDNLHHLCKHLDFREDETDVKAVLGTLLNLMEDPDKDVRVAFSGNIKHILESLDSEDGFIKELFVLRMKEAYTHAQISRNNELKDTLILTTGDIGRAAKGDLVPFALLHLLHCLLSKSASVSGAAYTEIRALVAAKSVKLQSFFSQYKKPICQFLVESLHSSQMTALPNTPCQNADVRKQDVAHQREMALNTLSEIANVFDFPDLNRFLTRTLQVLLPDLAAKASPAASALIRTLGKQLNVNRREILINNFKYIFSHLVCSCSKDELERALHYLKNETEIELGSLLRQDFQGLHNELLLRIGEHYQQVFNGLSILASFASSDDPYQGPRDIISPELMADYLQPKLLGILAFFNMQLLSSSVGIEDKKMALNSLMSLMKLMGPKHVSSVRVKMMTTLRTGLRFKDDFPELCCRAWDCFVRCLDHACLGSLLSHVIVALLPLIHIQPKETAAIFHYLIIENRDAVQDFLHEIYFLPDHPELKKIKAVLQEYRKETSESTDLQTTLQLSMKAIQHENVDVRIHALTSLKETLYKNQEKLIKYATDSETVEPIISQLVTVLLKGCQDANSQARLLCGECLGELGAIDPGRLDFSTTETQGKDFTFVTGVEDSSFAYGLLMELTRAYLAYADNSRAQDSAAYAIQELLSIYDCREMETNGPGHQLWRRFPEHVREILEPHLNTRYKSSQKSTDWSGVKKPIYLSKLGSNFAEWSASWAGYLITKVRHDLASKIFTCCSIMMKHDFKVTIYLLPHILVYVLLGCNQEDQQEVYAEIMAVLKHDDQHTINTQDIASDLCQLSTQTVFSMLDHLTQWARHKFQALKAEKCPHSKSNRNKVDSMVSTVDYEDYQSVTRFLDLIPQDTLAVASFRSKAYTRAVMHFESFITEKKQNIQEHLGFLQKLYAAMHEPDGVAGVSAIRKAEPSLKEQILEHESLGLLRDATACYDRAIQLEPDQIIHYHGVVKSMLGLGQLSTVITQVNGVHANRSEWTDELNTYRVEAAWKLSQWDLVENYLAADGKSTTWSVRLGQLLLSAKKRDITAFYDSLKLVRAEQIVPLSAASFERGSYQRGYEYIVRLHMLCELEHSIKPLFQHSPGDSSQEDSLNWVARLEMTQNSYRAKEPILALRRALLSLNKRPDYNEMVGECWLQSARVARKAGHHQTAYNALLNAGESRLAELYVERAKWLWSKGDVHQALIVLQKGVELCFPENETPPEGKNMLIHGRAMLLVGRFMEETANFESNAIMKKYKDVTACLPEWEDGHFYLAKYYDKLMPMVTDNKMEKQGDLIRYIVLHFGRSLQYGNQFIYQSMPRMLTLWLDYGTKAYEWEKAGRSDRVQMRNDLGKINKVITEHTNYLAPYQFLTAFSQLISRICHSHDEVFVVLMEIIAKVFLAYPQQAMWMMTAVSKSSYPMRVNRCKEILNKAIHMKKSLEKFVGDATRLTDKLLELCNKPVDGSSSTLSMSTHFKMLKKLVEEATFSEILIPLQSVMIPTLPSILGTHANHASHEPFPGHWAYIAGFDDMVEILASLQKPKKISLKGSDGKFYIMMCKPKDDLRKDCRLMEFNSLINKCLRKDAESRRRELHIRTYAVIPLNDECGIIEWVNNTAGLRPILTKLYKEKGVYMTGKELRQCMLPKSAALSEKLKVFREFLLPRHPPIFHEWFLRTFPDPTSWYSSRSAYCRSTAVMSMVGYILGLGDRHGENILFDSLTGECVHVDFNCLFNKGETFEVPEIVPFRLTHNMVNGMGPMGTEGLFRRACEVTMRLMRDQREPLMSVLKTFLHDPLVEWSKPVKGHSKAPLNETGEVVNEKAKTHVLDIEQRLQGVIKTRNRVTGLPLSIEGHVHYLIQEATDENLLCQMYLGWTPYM
Mitogen-activated protein kinase kinase kinase kinase 5 (Homo sapiens), sequence (Q9Y4K4 whole entry, looked up): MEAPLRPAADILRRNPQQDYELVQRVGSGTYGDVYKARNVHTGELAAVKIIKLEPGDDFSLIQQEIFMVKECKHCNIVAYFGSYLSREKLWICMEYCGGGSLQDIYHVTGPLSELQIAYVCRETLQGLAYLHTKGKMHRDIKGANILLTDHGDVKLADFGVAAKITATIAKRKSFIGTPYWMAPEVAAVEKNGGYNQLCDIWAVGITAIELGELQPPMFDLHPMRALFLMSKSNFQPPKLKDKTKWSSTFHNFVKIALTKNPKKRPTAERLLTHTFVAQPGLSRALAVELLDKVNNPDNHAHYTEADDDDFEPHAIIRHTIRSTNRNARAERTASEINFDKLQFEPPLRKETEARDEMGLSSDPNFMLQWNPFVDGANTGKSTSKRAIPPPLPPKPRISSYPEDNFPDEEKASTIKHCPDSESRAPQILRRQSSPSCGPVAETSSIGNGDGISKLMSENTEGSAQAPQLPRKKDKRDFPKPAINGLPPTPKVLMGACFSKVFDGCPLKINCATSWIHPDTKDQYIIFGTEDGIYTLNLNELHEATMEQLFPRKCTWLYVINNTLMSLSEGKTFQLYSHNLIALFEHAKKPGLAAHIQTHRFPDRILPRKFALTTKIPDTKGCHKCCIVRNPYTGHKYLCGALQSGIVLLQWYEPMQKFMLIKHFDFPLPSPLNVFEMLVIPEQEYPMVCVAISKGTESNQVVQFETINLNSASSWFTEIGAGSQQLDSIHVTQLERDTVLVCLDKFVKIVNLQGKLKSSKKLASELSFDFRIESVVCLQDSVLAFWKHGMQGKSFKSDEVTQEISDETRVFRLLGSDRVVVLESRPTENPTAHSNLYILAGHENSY

| inhibition [2] [%] | inhibition [3] [%] | inhibition [4] [%] | inhibition [5] [%] | inhibition [6] [%] | inhibition [7] [%] | inhibition [8] [%] | inhibition [9] [%] | Compound | inhibition at 0.1 µM (HL-60 [1]) [%] | inhibition at 0.1 µM (HL-60 [10]) [%] |
| --- | --- | --- | --- | --- | --- | --- | --- | --- | --- | --- |
| < 35 | < 35 | < 35 | < 35 | < 35 | < 35 | < 35 | < 35 | C[C@H]1COc2c(NCCCc3ccccn3)c(F)c(N)c3c(=O)c(C#N)cn1c23 | < 35 | < 35 |
| < 35 | < 35 | < 35 | < 35 | < 35 | < 35 | < 35 | < 35 | C[C@H]1COc2c(NCCCn3cccn3)c(F)c(N)c3c(=O)c(C(=O)O)cn1c23 | < 35 | < 35 |
| < 35 | < 35 | < 35 | < 35 | < 35 | < 35 | < 35 | < 35 | C[C@H]1COc2c(NCCCn3cccn3)c(F)c(N)c3c(=O)c(C#N)cn1c23 | < 35 | < 35 |
| < 35 | < 35 | < 35 | < 35 | < 35 | < 35 | < 35 | < 35 | C[C@H]1COc2c(NCCCc3ccccn3)c(F)c(N)c3c(=O)c(C(=O)O)cn1c23 | < 35 | < 35 |
